These results are taken from patent US20230265116A1, “DEGRADATION OF (EGFR) BY CONJUGATION OF EGFR INHIBITORS WITH E3 LIGASE LIGAND AND METHODS OF USE” (BEIGENE, LTD., priority 2020, published 2023).

Molecules are shown by their SMILES.

Holding throughout (assay type): cell-based
The target of one experiment is T1, EGFR (HCC827 cells) (Homo sapiens, UniProt P00533, DEL746-750).
T1 construct: endogenous in cells; host or cells: HCC827
Kind of experiment: EGFR degradation HTRF assay, HCC827 cells. Conditions: HCC827, 16h treatment; for Dmax: maximum percentage of degradation. Here is the method: BaF3 WT(wild type), BaF3-LTC(L858R/T790M/C797S) and BaF3-DTC(Del19/T790M/C797S) cells are treated with compounds diluted in 0.2% DMSO cell culture medium and incubate for 16h, 37° C., 5% CO2, H1975-#36, H1975-#28, H1975-#23 and HCC827 cells are treated with compounds diluted in 0.2% DMSO cell culture medium on day 2, incubate for 16h, 37° C., 5% CO2.the final concentriation of compounds in all assay is start with 10 uM, 5-fold dilution, total 8 doses were included.
After 16h treatment, add HTRF lysis buffer to each well; seal the plate and incubate 1 hour at room temperature on a plate shaker; Once the cells are lysed, 16 μL of cell lysate are transferred to a PE 384-well HTRF detection plate; 4 μL of pre-mixed HTRF antibodies are added to each well; Cover the plate with a plate sealer, spin 1000 rpm for 1 min, Incubate overnight at room temperature; Read on BMG PheraStar with HTRF protocol (337 nm-665 nm-620 nm).
The inhibition (degradation) percentage of the compound was calculated by the following equation: Inhibition percentage of Compound=100-100×(Signal-low control)/(High control-low control), wherein signal=each test compound group
High control=Cell group with added DMSO and without compound, indicating microplate readings without EGFR degradation;
Dmax is the maximum percentage of inhibition (degradation).
The IC50 (DC50) value of a compound can be obtained by fitting the following equation
Y=Bottom+(TOP−Bottom)/(1+((IC50/X)^hillslope))
Wherein, X and Y are known values, and IC50, Hillslope, Top and Bottom are the parameters obtained by fitting with software. Y is the inhibition percentage (calculated from the equation), X is the concentration of the compound; IC50 is the concentration of the compound when the 50% inhibition is reached. The smaller the IC50 value is, the stronger the inhibitory ability of the compound is. Vice versa, the higher the IC50 value is, the weaker the inhibitory ability of the compound is; Hillslope represents the slope of the fitted curve, generally around 1*; Bottom represents the minimum value of the curve obtained by data fitting, which is generally 0%±20%; Top represents the maximum value of the curve obtained by data fitting, which is generally 100%±20%. The experimental data were fitted by calculating and analyzing with Dotmatics data analysis software.

The test system of experiment [1] is EGFR Del19/T790M/C797S (BaF3-DTC cells). As to the kind of experiment: EGFR degradation HTRF assay, BaF3-DTC cells. The following applies: 16h treatment; for DTC Dmax (%): maximum percentage of degradation; for DC50: read-out: DTC DC50. The essentials: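 EGFR remaining after a 16 h, 37 °C exposure (8 doses, 5-fold steps from 10 uM final, 0.2% DMSO) was quantified by HTRF antibodies in cell lysate. Percent inhibition relative to DMSO control was fitted by four-parameter logistic to give DC50; Dmax denotes maximal degradation.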
(In TR-FRET formats the signal depends on donor and acceptor labels being close together.)

Experiment [2] concerns the target T2, EGFR L858R/T790M/C797S (BaF3-LTC cells) (Homo sapiens, UniProt P00533, C797S/L858R/T790M).
T2 construct: expressed in transfected cells; host or cells: BaF3
As to the kind of experiment: EGFR degradation HTRF assay, BaF3-LTC cells. Conditions: BaF3-LTC, 16h treatment; for Dmax: maximum percentage of degradation, read-out: LTC Dmax (%); for DC50: read-out: LTC DC50. The essentials:
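Cells treated 16 h at 37 °C, 5% CO2 in medium with 0.2% DMSO; top final concentration 10 uM, 5-fold dilution, 8 doses. Lysates read by HTRF (665/620 nm); degradation % versus DMSO high control, DC50 from four-parameter fit, Dmax as maximal degradation.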

T2 sequence (P00533 25-1210 T790M/C797S/L858R): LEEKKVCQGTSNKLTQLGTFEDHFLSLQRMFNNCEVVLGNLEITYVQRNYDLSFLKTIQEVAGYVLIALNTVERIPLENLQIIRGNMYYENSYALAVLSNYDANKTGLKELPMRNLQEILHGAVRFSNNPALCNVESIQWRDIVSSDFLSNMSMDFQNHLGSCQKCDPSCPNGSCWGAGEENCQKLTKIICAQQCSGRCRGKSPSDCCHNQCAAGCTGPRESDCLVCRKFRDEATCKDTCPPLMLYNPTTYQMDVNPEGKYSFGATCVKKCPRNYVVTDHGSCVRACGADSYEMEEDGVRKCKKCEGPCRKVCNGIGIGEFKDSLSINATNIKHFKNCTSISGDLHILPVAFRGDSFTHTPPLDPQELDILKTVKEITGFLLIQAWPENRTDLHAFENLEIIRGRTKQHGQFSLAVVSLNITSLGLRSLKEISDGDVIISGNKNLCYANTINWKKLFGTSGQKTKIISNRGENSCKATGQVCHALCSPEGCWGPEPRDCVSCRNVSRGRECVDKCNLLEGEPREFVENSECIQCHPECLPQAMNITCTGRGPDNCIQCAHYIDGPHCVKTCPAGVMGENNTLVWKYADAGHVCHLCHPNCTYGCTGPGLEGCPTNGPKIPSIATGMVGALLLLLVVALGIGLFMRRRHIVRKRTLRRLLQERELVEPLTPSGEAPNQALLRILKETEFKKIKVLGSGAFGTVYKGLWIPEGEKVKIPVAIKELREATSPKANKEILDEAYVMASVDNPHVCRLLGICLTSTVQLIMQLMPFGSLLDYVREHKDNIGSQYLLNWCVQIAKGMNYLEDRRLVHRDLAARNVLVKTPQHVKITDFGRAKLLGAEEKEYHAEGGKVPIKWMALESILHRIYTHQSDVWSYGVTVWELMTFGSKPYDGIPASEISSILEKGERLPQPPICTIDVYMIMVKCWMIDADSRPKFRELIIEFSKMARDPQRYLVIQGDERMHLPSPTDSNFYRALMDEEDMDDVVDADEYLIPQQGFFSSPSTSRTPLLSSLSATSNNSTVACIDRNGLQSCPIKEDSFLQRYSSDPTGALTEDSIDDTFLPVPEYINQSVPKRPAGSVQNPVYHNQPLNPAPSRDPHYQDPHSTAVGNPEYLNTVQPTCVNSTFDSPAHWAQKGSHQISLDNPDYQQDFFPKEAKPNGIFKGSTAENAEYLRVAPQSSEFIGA
T1 sequence (P00533 with tags, fused parts or gaps DEL746-750): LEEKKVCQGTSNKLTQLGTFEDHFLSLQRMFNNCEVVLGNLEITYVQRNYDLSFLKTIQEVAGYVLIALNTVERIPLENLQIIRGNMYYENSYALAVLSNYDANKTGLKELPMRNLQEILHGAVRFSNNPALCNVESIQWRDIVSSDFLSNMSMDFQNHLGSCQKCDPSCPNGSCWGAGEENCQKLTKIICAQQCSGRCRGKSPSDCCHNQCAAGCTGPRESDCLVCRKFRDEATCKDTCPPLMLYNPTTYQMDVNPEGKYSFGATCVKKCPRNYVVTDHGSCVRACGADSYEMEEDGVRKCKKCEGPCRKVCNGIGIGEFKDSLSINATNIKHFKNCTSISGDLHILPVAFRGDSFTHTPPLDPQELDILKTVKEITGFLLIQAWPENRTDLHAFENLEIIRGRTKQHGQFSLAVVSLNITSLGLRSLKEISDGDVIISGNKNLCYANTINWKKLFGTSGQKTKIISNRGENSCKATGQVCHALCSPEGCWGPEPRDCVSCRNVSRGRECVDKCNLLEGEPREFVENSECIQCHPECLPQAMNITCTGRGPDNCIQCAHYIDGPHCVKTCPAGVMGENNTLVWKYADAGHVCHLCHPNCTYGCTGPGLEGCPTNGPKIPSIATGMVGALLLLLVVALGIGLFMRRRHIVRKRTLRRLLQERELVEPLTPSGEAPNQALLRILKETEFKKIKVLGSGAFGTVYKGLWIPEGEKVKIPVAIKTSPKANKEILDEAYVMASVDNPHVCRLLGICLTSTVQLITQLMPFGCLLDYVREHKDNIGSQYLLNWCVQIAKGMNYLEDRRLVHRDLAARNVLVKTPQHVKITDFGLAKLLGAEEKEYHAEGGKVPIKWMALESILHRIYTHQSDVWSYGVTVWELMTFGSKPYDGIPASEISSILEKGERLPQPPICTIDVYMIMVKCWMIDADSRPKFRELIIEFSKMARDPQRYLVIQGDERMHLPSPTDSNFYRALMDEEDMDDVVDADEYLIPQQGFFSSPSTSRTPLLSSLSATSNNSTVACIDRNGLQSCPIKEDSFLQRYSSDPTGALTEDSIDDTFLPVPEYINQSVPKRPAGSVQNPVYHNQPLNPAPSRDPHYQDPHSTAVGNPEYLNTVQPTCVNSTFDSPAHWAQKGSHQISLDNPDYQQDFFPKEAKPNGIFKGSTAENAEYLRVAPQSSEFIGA

The DC50 is the midpoint of the concentration-degradation curve. Broadly, the Dmax is the greatest extent of degradation seen. As to `CCc1cc(Nc2ncc(Br)c(Nc3ccc4nccnc4c3P(C)(C)=O)n2)c(OC)cc1N1CCC(N2CCN(CCCOc3ccc(C4CCC(=O)NC4=O)cc3)CC2)CC1` (stereo not shown) [Example 18, 3-(4-(3-(4-(1-(4-((5-bromo-4-((5-(dimethylphosphoryl)quinoxalin-6-yl)amino)pyrimidin-2-yl)amino)-2-ethyl-5-methoxyphenyl)piperidin-4-yl)piperazin-1-yl)propoxy)phenyl)piperidine-2,6-dione], on EGFR (HCC827 cells), the DC50 was 15.4 nM and the Dmax was determined as 77.5%.
In the same order, the values of `CCc1cc(Nc2ncc(Br)c(Nc3ccc4nccnc4c3P(C)(C)=O)n2)c(OC)cc1N1CCC(N2CCN(C(=O)CCCCN3CCN(c4ccc5c(c4)C(=O)N(C4CCC(=O)NC4=O)C5=O)CC3)CC2)CC1` (stereo not shown) [Example 62, 5-(4-(5-(4-(1-(4-((5-bromo-4-((5-(dimethylphosphoryl)quinoxalin-6-yl)amino)pyrimidin-2-yl)amino)-2-ethyl-5-methoxyphenyl)piperidin-4-yl)piperazin-1-yl)-5-oxopentyl)piperazin-1-yl)-2-(2,6-dioxopiperidin-3-yl)isoindoline-1,3-dione] are 6.24 nM and 83.7%.
In the case of `CCc1cc(Nc2ncc(Br)c(Nc3ccc4ncsc4c3P(C)(C)=O)n2)c(OC)cc1N1CCC(N2CCN(CCc3cc(F)c(C4CCC(=O)NC4=O)c(F)c3)CC2)CC1` (stereo not shown) [Example 714, 3-(4-(2-(4-(1-(4-((5-bromo-4-((7-(dimethylphosphoryl)benzo[d]thiazol-6-yl)amino)pyrimidin-2-yl)amino)-2-ethyl-5-methoxyphenyl)piperidin-4-yl)piperazin-1-yl)ethyl)-2,6-difluorophenyl)piperidine-2,6-dione], in experiment [1], the “DTC Dmax (%)” value amounted to 96.7% and the DC50 was 5.34 nM. For the same compound, in experiment [2], the Dmax came out at 90.1% and the DC50 was determined as 18.9 nM.
In the same order, the values of `CCc1cc(Nc2ncc(Br)c(Nc3ccc4nc(C)ccc4c3P(C)(C)=O)n2)c(OC)cc1N1CCC(N2CCN(CCc3cc(F)c(C4CCC(=O)NC4=O)c(F)c3)C[C@@H]2C)CC1` (stereo partly drawn) [Example 715, 3-(4-(2-((S)-4-(1-(4-((5-bromo-4-((5-(dimethylphosphoryl)-2-methylquinolin-6-yl)amino)pyrimidin-2-yl)amino)-2-ethyl-5-methoxyphenyl)piperidin-4-yl)-3-methylpiperazin-1-yl)ethyl)-2,6-difluorophenyl)piperidine-2,6-dione] are 92.57%, 4.3 nM, 89.8% and 7.08 nM.
On to `CCc1cc(Nc2ncc(Br)c(Nc3ccc4nc(C)ccc4c3P(C)(C)=O)n2)c(OC)cc1N1CCC(N2C[C@H](C)N(CCc3cc(F)c(C4CCC(=O)NC4=O)c(F)c3)C[C@H]2C)CC1` (stereo partly drawn) [Example 716, 3-(4-(2-((2S,5R)-4-(1-(4-((5-bromo-4-((5-(dimethylphosphoryl)-2-methylquinolin-6-yl)amino)pyrimidin-2-yl)amino)-2-ethyl-5-methoxyphenyl)piperidin-4-yl)-2,5-dimethylpiperazin-1-yl)ethyl)-2,6-difluorophenyl)piperidine-2,6-dione], for which, in experiment [1], the “DTC Dmax (%)” value was 91.65% and the DC50 stood at 3.06 nM. Further, in experiment [2], the Dmax turned out to be 90% and the DC50 came to 8.2 nM.
Taken in the same sequence, the figures for `CCc1cc(Nc2ncc(Br)c(Nc3ccc4nc(C)ccc4c3P(C)(C)=O)n2)c(OC)cc1N1CCC(N2CCN([C@H]3C[C@@H](c4cc(F)c(C5CCC(=O)NC5=O)c(F)c4)C3)CC2)CC1` (stereo partly shown) [Example 717, 3-(4-((1s,3s)-3-(4-(1-(4-((5-bromo-4-((5-(dimethylphosphoryl)-2-methylquinolin-6-yl)amino)pyrimidin-2-yl)amino)-2-ethyl-5-methoxyphenyl)piperidin-4-yl)piperazin-1-yl)cyclobutyl)-2,6-difluorophenyl)piperidine-2,6-dione] were 94.13%, 5.98 nM, 91.4% and 17.1 nM.
Taken in the same sequence, the figures for `CCc1cc(Nc2ncc(Br)c(Nc3ccc4nc(C)ccc4c3P(C)(C)=O)n2)c(OC)cc1N1CCC(N2CCN(CC3CCN(c4cc(F)c(NC5CCC(=O)NC5=O)c(F)c4)CC3)CC2)CC1` (stereo not shown) [Example 718, 3-((4-(4-((4-(1-(4-((5-bromo-4-((5-(dimethylphosphoryl)-2-methylquinolin-6-yl)amino)pyrimidin-2-yl)amino)-2-ethyl-5-methoxyphenyl)piperidin-4-yl)piperazin-1-yl)methyl)piperidin-1-yl)-2,6-difluorophenyl)amino)piperidine-2,6-dione] were 79.24%, 25.6 nM, 89.6% and 121 nM.
Taken in the same sequence, the figures for `CCc1cc(Nc2ncc(Br)c(Nc3ccc4nc(C)ccc4c3P(C)(C)=O)n2)c(OC)cc1N1CCC(N2CCN(CCC3CCN(c4ccc5nn(C6CCC(=O)NC6=O)cc5c4)CC3)CC2)CC1` (stereo not shown) [Example 719, 3-(5-(4-(2-(4-(1-(4-((5-bromo-4-((5-(dimethylphosphoryl)-2-methylquinolin-6-yl)amino)pyrimidin-2-yl)amino)-2-ethyl-5-methoxyphenyl)piperidin-4-yl)piperazin-1-yl)ethyl)piperidin-1-yl)-2H-indazol-2-yl)piperidine-2,6-dione] were 84.38%, 30.6 nM, 90.4% and 72.9 nM.
Take `CCc1cc(Nc2ncc(Br)c(Nc3ccc4c(=O)n(C)ccc4c3P(C)(C)=O)n2)c(OC)cc1N1CCC(N2CCN(CCC3CCN(c4cc(F)c(C5CCC(=O)NC5=O)c(F)c4)CC3)CC2)CC1` (stereo not shown) [Example 720, 3-(4-(4-(2-(4-(1-(4-((5-bromo-4-((5-(dimethylphosphoryl)-2-methyl-1-oxo-1,2-dihydroisoquinolin-6-yl)amino)pyrimidin-2-yl)amino)-2-ethyl-5-methoxyphenyl)piperidin-4-yl)piperazin-1-yl)ethyl)piperidin-1-yl)-2,6-difluorophenyl)piperidine-2,6-dione]: in experiment [1], the “DTC Dmax (%)” value worked out at 86.63% and the DC50 came to 10.4 nM. For the same compound, in experiment [2], the Dmax turned out to be 91.7% and the DC50 is 20.3 nM.
In the same order, the values of `CCc1cc(Nc2ncc(Br)c(Nc3ccc4c(=O)n(C)cnc4c3P(C)(C)=O)n2)c(OC)cc1N1CCC(N2CCN(CCC3CCN(c4cc(F)c(C5CCC(=O)NC5=O)c(F)c4)CC3)CC2)CC1` (stereo not shown) [Example 721, 3-(4-(4-(2-(4-(1-(4-((5-bromo-4-((8-(dimethylphosphoryl)-3-methyl-4-oxo-3,4-dihydroquinazolin-7-yl)amino)pyrimidin-2-yl)amino)-2-ethyl-5-methoxyphenyl)piperidin-4-yl)piperazin-1-yl)ethyl)piperidin-1-yl)-2,6-difluorophenyl)piperidine-2,6-dione] are 88.98%, 7.28 nM, 91.9% and 49.4 nM.
Taken in the same sequence, the figures for `COc1cc(N2CCN(C3CN(C(=O)c4cnc(C(=O)Nc5ccc(C6CCC(=O)NC6=O)cc5)cn4)C3)CC2)c(C)cc1Nc1ncc(Br)c(Nc2ccc3nccnc3c2P(C)(C)=O)n1` (stereo not shown) [Example 723, 5-(3-(4-(4-((5-bromo-4-((5-(dimethylphosphoryl)quinoxalin-6-yl)amino)pyrimidin-2-yl)amino)-5-methoxy-2-methylphenyl)piperazin-1-yl)azetidine-1-carbonyl)-N-(4-(2,6-dioxopiperidin-3-yl)phenyl)pyrazine-2-carboxamide] were 76.49%, 5.67 nM, 81.7% and 12.1 nM.
